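Test compounds were applied to cells in 96-well plates for 48 hours at 5 doses. At the GI50, growth is halved.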 Calls of active or inactive are those of the source. Rule as the data show it: active = GI50 up to about 1.1 µM and inactive = higher.
Key:
Assay in all cases: NCI-60 cell line screen, 48 h
[1] = tested on: SNB-19
[2] = tested on: M14
[3] = tested on: HCT-116
[4] = tested on: XF498
[5] = tested on: K562
[6] = tested on: HOP-62
[7] = tested on: HCC 2998
[8] = tested on: HOP-92
[9] = tested on: RPMI-8226
[10] = tested on: DLD-1
[11] = tested on: SK-MEL-28
[12] = tested on: A549
[13] = tested on: NCI-H522
[14] = tested on: LXFL 529
[15] = tested on: A498
[16] = tested on: OVCAR-4
[17] = tested on: NCI-H226
[18] = tested on: M19-MEL
[19] = tested on: UACC-257
[20] = tested on: SW-620
[21] = tested on: RXF 393
[22] = tested on: SNB-78
[23] = tested on: OVCAR-5
[24] = tested on: SK-OV-3
[25] = tested on: 786-0
[26] = tested on: SF-268
[27] = tested on: EKVX
[28] = tested on: COLO 205
[29] = tested on: IGROV-1
[30] = tested on: ACHN
[31] = tested on: NCI-H23
[32] = tested on: UACC-62
[33] = tested on: NCI-H460
[34] = tested on: HCT-15
[35] = tested on: HT-29
[36] = tested on: U-251
[37] = tested on: SNB-75
[38] = tested on: TK-10
[39] = tested on: SF-539
[40] = tested on: OVCAR-3
[41] = tested on: KM-20L2
[42] = tested on: UO-31
[43] = tested on: CAKI-1
[44] = tested on: SK-MEL-5
[45] = tested on: Malme-3M
[46] = tested on: MOLT-4
[47] = tested on: SN12C
[48] = tested on: LOX IMVI
[49] = tested on: SF-295
[50] = tested on: KM12
[51] = tested on: DMS-114
[52] = tested on: SR
[53] = tested on: OVCAR-8
[54] = tested on: DMS-273
[55] = tested on: CCRF-CEM
[56] = tested on: HL-60
[57] = tested on: HOP-18
[58] = tested on: SK-MEL-2

Measured: GI50

COC(=O)C(C(=O)C(=O)Nc1nc2ccc(OC)cc2s1)c1cnc2ccccc2n1 (stereo not drawn)
> 100 µM: [34]
inactive: [1] > 100 µM | [2] > 100 µM | [3] > 100 µM | [4] > 100 µM | [5] > 100 µM | [6] > 100 µM | [7] > 100 µM | [8] > 100 µM | [9] > 100 µM | [10] > 100 µM | [11] > 100 µM | [12] > 100 µM | [13] > 100 µM | [14] > 100 µM | [15] > 100 µM | [16] > 100 µM | [17] > 100 µM | [18] > 100 µM | [19] > 100 µM | [20] > 100 µM | [21] > 100 µM | [22] > 100 µM | [23] > 100 µM | [24] > 100 µM | [25] > 100 µM | [26] > 100 µM | [27] > 100 µM | [28] > 100 µM | [29] > 100 µM | [30] > 100 µM | [31] > 100 µM | [32] > 100 µM | [33] > 100 µM | [35] > 100 µM | [36] > 100 µM | [37] > 100 µM | [38] > 100 µM | [39] > 100 µM | [40] > 100 µM | [41] > 100 µM | [42] > 100 µM | [43] > 100 µM | [44] > 100 µM | [45] > 100 µM | [46] > 100 µM | [47] > 100 µM | [48] > 100 µM | [49] > 100 µM | [50] > 100 µM

COc1ccc(CC#N)c(OCc2ccccc2)c1
inactive: [1] 40.6 µM | [2] 35.6 µM | [3] 33.2 µM | [5] 58.6 µM | [6] > 100 µM | [7] 29.9 µM | [51] 30.8 µM | [9] 43.3 µM | [10] 28.1 µM | [11] 23.9 µM | [12] 78.3 µM | [13] 38.9 µM | [14] 20.2 µM | [15] 11.2 µM | [16] 71.6 µM | [17] 6.73 µM | [18] 29.3 µM | [19] 39.3 µM | [52] 33.4 µM | [20] 31 µM | [53] > 100 µM | [25] > 100 µM | [26] 68.4 µM | [27] 30.7 µM | [28] 40.4 µM | [29] 29.4 µM | [30] 27 µM | [31] 77.8 µM | [32] 28.8 µM | [33] 61 µM | [54] 49.4 µM | [39] > 100 µM | [40] 80.5 µM | [41] 31.3 µM | [42] 42.2 µM | [43] > 100 µM | [55] > 100 µM | [44] 19.7 µM | [45] 22 µM | [46] 30.3 µM | [47] 51.5 µM | [56] > 10 µM | [48] 43.8 µM | [49] 60 µM | [50] 61.5 µM | [57] 14.2 µM

O=C(O)c1ccc(/N=N/c2cc(S(=O)(=O)O)c3cccnc3c2O)cc1
inactive: [1] > 100 µM | [3] > 100 µM | [4] > 100 µM | [5] > 100 µM | [6] > 100 µM | [7] > 100 µM | [51] > 100 µM | [8] > 100 µM | [9] > 100 µM | [10] 63.4 µM | [11] > 100 µM | [12] > 100 µM | [15] > 100 µM | [16] > 100 µM | [17] > 100 µM | [58] > 100 µM | [18] > 100 µM | [19] > 100 µM | [52] > 100 µM | [20] > 100 µM | [53] > 100 µM | [21] > 100 µM | [22] > 100 µM | [23] > 100 µM | [24] > 100 µM | [25] > 100 µM | [26] > 100 µM | [27] > 100 µM | [28] > 100 µM | [29] > 100 µM | [30] > 100 µM | [31] > 100 µM | [33] > 100 µM | [35] > 100 µM | [36] > 100 µM | [37] > 100 µM | [54] > 100 µM | [38] > 100 µM | [39] > 100 µM | [40] > 100 µM | [41] > 100 µM | [42] > 100 µM | [43] > 100 µM | [44] > 100 µM | [45] > 100 µM | [46] > 100 µM | [47] > 100 µM | [56] > 100 µM | [48] > 100 µM | [49] > 100 µM | [50] > 100 µM
> 100 µM: [34]
